Data published in US20250099427A1, “Drug and Method of Treating or Preventing Renal Disease Using Drug” (Showa University, priority 2018, published 2025).

Experiments:
Type in all cases: in vivo, mouse
[1] = test system: Acute Renal Failure Animal Model; test: Test using acute renal failure animal model (renal ischemia and reperfusion), renal function parameters; settings: for Cer: creatinine clearance; for FENa: fractional excretion of sodium; for KW: kidney weight
From the text: A male ddY strain mouse (30 g) was used as an experimental animal. Under anesthesia with isoflurane, the right flank was incised about 2 cm to expose the kidney. After ligating the renal arteries and veins and the ureter, the right kidney was isolated.
A recovery period of 2 weeks was given, and then an acute renal failure mouse model was produced. Under anesthesia with isoflurane, the left abdomen was incised about 3 cm to expose the left kidney, and the fat around the renal arteries and veins was removed. The blood flow in the left renal arteries and veins was blocked using an atraumatic clip, and the kidney was left in ischemia for 45 minutes. The blood flow was then reperfused by removing the atraumatic clip, the kidney was returned to the abdominal cavity, and the flank was sutured. Mice similarly subjected to the steps other than the ischemia and reperfusion steps using the atraumatic clip were designated as a sham group (eight mice).
After 15 minutes of the initiation of ischemia, the vehicle, SMTP-7, SMTP-27, SMTP-44D, and edaravone were continuously administered to the femoral vein for 30 minutes.
24 hours after the ischemia and reperfusion processes, urine was collected for 24 hours using a metabolic cage, and the urinary output (UF; μL/min/kg) was measured. During collecting urine, only water was freely given. After urine collection, the body weight of each mouse was measured, and blood was collected from the abdominal aorta under anesthesia with isoflurane. After blood collection, the left kidney was isolated and the fat was removed in physiological saline. The kidney weight (KW; mg/g) was measured, and then the kidney was fixed in a 10% neutral buffered formalin solution for Hematoxylin Eosin (HE) staining.
The collected blood was centrifuged at 800×g for 15 minutes at 25° C. to collect serum. Further, the urine collected using a metabolic cage was also used to evaluate renal function. In order to evaluate parameters in the serum, blood urea nitrogen (BUN; mg/dL) was measured using a QuantiChrom Urea Assay Kit (Funakoshi Co., Ltd.). Serum creatinine concentration (Scr; mg/dL) and urinary creatinine concentration (Ucr; mg/dL) were measured using LabAssay (trademark) Creatinine (manufactured by Wako Pure Chemical Industries, Ltd.), and creatinine clearance (Ccr; mL/min/kg) was calculated. The concentrations of sodium in the serum and urine were measured using Fuji Dry Chem 7000 (manufactured by FUJIFILM Corporation), and fractional excretion of sodium (FENa; %) was calculated. Urinary albumin concentration (Ualb; mg/hr/kg) was measured using Albwel M (manufactured by Cosmo Bio Co., Ltd.).
(§1) In Table 11, the experimental results are expressed in mean±standard error in eight mice in each group. For comparison among multiple groups, firstly, one-way analysis of variance (ANOVA) was conducted, and then a Bonferroni test was conducted, if significant difference was recognized. Significant difference was recognized with a significance level of less than 5% (P<0.05).

[2] = test system: Acute Renal Failure Animal Model; test: Acute renal failure animal model, pathological tissue specimen (HE staining) lesion scores; settings: 3 mg/kg
Method: 24 hours after the ischemia and reperfusion processes, urine was collected for 24 hours using a metabolic cage, measurement of body weight was conducted, and blood was collected. Thereafter, nephrectomy was conducted, and formalin-fixed kidney was permeated with paraffin using an automatic embedding device to produce a paraffin block. The paraffin block was sliced into 3 μm sections with a microtome, and placed on a slide glass. Then, the sections were stretched with a paraffin stretcher at 52° C., and sufficiently dried overnight in a paraffin melter at 37° C. After deparaffinization and washing with water, the sections were stained with a Mayer's hematoxylin staining solution for 1 minute and washed with running water for 15 minutes. Thereafter, the sections were stained with an eosin staining solution for 45 seconds, and dehydrated with 80% to 100% ethanol, followed by clearing with xylene and sealing with marinol. Each specimen was examined microscopically at a magnification of 50 using an optical microscope. With respect to tubular dilatation, tubular necrosis, and tubular casts in the cortex, outer zone of outer medulla, and inner zone of outer medulla, the percentage of lesions in each site was evaluated according to the following criteria.
as §1, with “12,” for “11,”

[3] = test system: Chronic Renal Failure Animal Model; test: Test using chronic renal failure animal model (nephrectomy + acetic acid application), renal function parameters; settings: Table 10 experiment (edaravone instead of SMTP-7); 30 mg/kg, same regimen as the SMTP-7 30 mg/kg group
Method: A male ddY strain mouse (body weight: 30 g to 40 g) was used. Under anesthesia with isoflurane, the right flank of the mouse was incised, the renal arteries and veins were ligated, and then the right kidney was isolated. After suturing, acrinol was applied to the suture site as a disinfection treatment, and enrofloxacin was subcutaneously administered at 5 mg/kg as a preventive measure against infection, and acetaminophen was subcutaneously administered at 75 mg/kg as an analgesic treatment. After a recovery period of 3 to 4 weeks, the left abdomen of the mouse was incised, 100% acetic acid was applied to both sides of the kidney 10 times. This was defined as one course, and two courses were conducted at 5 minute intervals. After suturing, postoperative treatment was conducted in the same manner as in the removal of one of the kidneys. Considering the effect of surgery, a sham group to which acetic acid was not applied was provided.
4 weeks after the application of acetic acid, SMTP-7 was administered at a dose of 10 mg/kg or 30 mg/kg. The administration was carried out three times a week for 8 consecutive weeks by intraperitoneal administration. In addition, physiological saline was similarly administered to the sham group (without acetic acid application) and the Control group (with acetic acid application).
12 weeks after the application of acetic acid, urine was collected for 24 hours using a metabolic cage, and the urinary output was measured. During collecting urine, water was freely given. After urine collection, blood was collected from the descending aorta, the collected blood was centrifuged at 3000 rpm for 15 minutes, serum was separated, and BUN (urea nitrogen) and sCr (serum creatinine value) were measured. Further, protein and creatinine in the urine were also measured to calculate creatinine clearance (Ccr). BUN was measured using Urea B-test Wako (manufactured by Wako Pure Chemical Industries, Ltd.) and a QuantiChrom Urea Assay Kit (manufactured by Funakoshi Co., Ltd.), sCr was measured using Lab Assay Creatinine (manufactured by Wako Pure Chemical Industries, Ltd.), and urinary protein was measured using a BCA Protein assay kit (Thermo Fisher Scientific).
Renal function was evaluated by measuring BUN, sCr, urinary output, and urinary protein. In addition, urinary creatinine was measured to calculate creatinine clearance (Ccr).
In Table 9, the experimental results are expressed in mean±standard error. With reference to statistically significant difference, an unpaired test between two groups (Student's t-test) was conducted for comparison between two groups, and one-way analysis of variance was conducted and then a Dunnett test was conducted for comparison among multiple groups. In all cases, a significance level of 5% or less (P<0.05) was regarded as significant difference.
The experiment and evaluation were carried out in the same manner as in the SMTP-7 (30 mg/kg) administration group, except that edaravone (30 mg/kg) was administered instead of SMTP-7 in the SMTP-7 (30 mg/kg) administration group.

[4] = 30 mg/kg continuous femoral vein 30 min from 15 min after start of 45 min ischemia, mean±SE, 8 mice
[5] = 30 mg/kg, acute renal failure model
[6] = 30 mg/kg continuous femoral vein 30 min from 15 min after start of 45 min ischemia, mean±SE, 8 mice, 30 mg/kg
[7] = urinary albumin, 30 mg/kg continuous femoral vein 30 min from 15 min after start of 45 min ischemia, mean±SE, 8 mice
[8] = urinary output, 30 mg/kg continuous femoral vein 30 min from 15 min after start of 45 min ischemia, mean±SE, 8 mice
[9] = points 0 (no lesion) to 4 (severe, 50% or more), mean±SE, 8 mice
[10] = 3 mg/kg continuous femoral vein 30 min from 15 min after start of 45 min ischemia, mean±SE, 8 mice
[11] = 3 mg/kg, acute renal failure model
[12] = 3 mg/kg continuous femoral vein 30 min from 15 min after start of 45 min ischemia, mean±SE, 8 mice, 3 mg/kg

Molecule `CC(C)=CCC/C(C)=C/CCC1(C)Oc2c(c(O)cc3c2CN(c2cc(C(=O)O)ccc2O)C3=O)CC1O` (stereo not drawn) [SMTP-27] has a BUN [1, 4] of 59.7 ± 10.5 mg/dL, a Scr [1, 4] of 0.5 ± 0.0 mg/dL and a UF [1, 5] of 4.67 ± 0.984 mL/h/kg. It also gave a Ualb [1, 5] of 2.0 ± 0.4 mg/h/kg, a Cer [1, 6] of 150 ± 6 mL/h/kg and an FENa [1, 6] of 0.8±0.1%. The KW [1, 6] was 13.8 ± 0.7 mg/g, the Ualb [1, 7] was 2 ± 0.4 mg/h/kg and the UF [1, 8] was 4.67 ± 0.984 mL/h/kg.
With `CC(C)=CCCC(C)=CCCC1(C)Oc2c(c(O)cc3c2CN(C(C(=O)O)c2ccc(O)cc2)C3=O)CC1O` (stereo not drawn) [SMTP-44D] the BUN [1, 4] was 55.7 ± 14.2 mg/dL, the Scr [1, 4] was 0.6 ± 0.1 mg/dL and the UF [1, 5] was 6.192 ± 2.008 mL/h/kg. For the same molecule, the Ualb [1, 5] was 1.3 ± 0.3 mg/h/kg, the Cer [1, 6] was 138 ± 24 mL/h/kg and the FENa [1, 6] was 1.2±0.1%. The KW [1, 6] was 12.3 ± 1.2 mg/g, the Ualb [1, 7] was 1.3 ± 0.3 mg/h/kg and the UF [1, 8] was 6.19 ± 2.02 mL/h/kg.
For `CC1=NN(c2ccccc2)C(=O)C1` [edaravone, reference compound], the “Histopathological changes (lesion changes), result in words” value ([2]; compared to control group) was “lesion changes were significantly improved only in tubular necrosis and tubular casts in the outer zone of outer medulla of the kidney and tubular casts in the inner zone of outer medulla”, the “Tubular cast score, Cortex” value [2, 9] was 0.9 ± 0.1 and the “Tubular cast score, Inner zone of outer medulla” value [2, 9] was 1.5 ± 0.4. The “Tubular cast score, Outer zone of outer medulla” value [2, 9] was 1.0 ± 0.2, the “Tubular dilatation score, Cortex” value [2, 9] was 3.0 ± 0.5 and the “Tubular dilatation score, Inner zone of outer medulla” value [2, 9] was 2.4 ± 0.5. The “Tubular dilatation score, Outer zone of outer medulla” value [2, 9] was 2.4 ± 0.5, the “Tubular necrosis score, Cortex” value [2, 9] was 0.9 ± 0.1 and the “Tubular necrosis score, Inner zone of outer medulla” value [2, 9] was 0.9 ± 0.1. For the same molecule, the “Tubular necrosis score, Outer zone of outer medulla” value [2, 9] was 0.9 ± 0.1, the BUN [1, 10] was 61.1 ± 5.9 mg/dL and the Scr [1, 10] was 0.5 ± 0.0 mg/dL. For the same molecule, the UF [1, 11] was 3.32 ± 0.726 mL/h/kg, the Ualb [1, 11] was 0.9 ± 0.2 mg/h/kg and the Cer [1, 12] was 126 ± 12 mL/h/kg. For the same molecule, the FENa [1, 12] was 1.0±0.1%, the KW [1, 12] was 13.4 ± 0.6 mg/g and the Ualb ([1]; urinary albumin, 3 mg/kg continuous femoral vein 30 min from 15 min after start of 45 min ischemia, mean±SE, 8 mice) was 0.9 ± 0.2 mg/h/kg. It also gave a UF ([1]; urinary output, 3 mg/kg continuous femoral vein 30 min from 15 min after start of 45 min ischemia, mean±SE, 8 mice) of 3.32 ± 0.726 mL/h/kg, a Urinary output [3] of 3.77 ± 0.704 mL/h/kg and a Urinary protein [3] of 553 ± 109 mg/kg/day.
